The source of these data is ChEMBL document CHEMBL1221321, “Synthesis and properties of macrolones characterized by two ether bonds in the linker” (Bioorg Med Chem, 2010).

Each structure is given as a SMILES string. Values after ≈ are worked out from the molar mass of the structure shown.

Test [1] deals with Streptococcus pneumoniae. Kind of test: Antibacterial activity against efflux-mediated macrolide-resistance Streptococcus pneumoniae Ci137 by broth microdilution method. In kind it is functional. A general note: Broth dilution looks for growth in wells or tubes with falling amounts of substance.
Test [2] has as its system Staphylococcus aureus. Kind of test: Antibacterial activity against efflux-mediated macrolide-resistance Staphylococcus aureus PK1 by broth microdilution method. It counts as functional.
In a further test the test system is Haemophilus influenzae. Kind of test: Antibacterial activity against Haemophilus influenzae ATCC 49247 by broth microdilution method. In kind it is functional.
For the next test, the system named is HepG2. The experiment in a line: Cytotoxicity against human HepG2 cells after 24 hrs by MTS assay. In kind it is cell-based. Particulars: HepG2, 24 h.
The subject of test [3] is Streptococcus pneumoniae. Kind of test: Antibacterial activity against inducible resistance to macrolide and constitutive resistance to lincosamide Streptococcus pneumoniae 134 GR M by broth microdilution method. In kind it is functional.
Test [4] has as its system Streptococcus pneumoniae. Kind of test: Antibacterial activity against constitutive MLS resistance Streptococcus pneumoniae 58 by broth microdilution method. In kind it is functional.
In a further test the test system is THP-1. The experiment in a line: Cytotoxicity against human THP1 cells after 24 hrs by MTS assay. It counts as cell-based. Particulars: THP-1, 24 h. (In general: Tetrazolium assays rely on reduction of a dye to a coloured formazan, in cell work by metabolically active cells.)
Test [5] deals with Streptococcus pyogenes. Kind of test: Antibacterial activity against constitutive MLS resistance Streptococcus pyogenes 166 GR-Micro by broth microdilution method. It counts as functional.
Test [6] has as its system Staphylococcus aureus. Kind of test: Antibacterial activity against inducible resistance to macrolide, licosamide, and streptogramin Staphylococcus aureus 90265/97 by broth microdilution method. It counts as functional.
Test [7] relates to Streptococcus pyogenes. The experiment in a line: Antibacterial activity against efflux-mediated macrolide-resistance Streptococcus pyogenes 2 by broth microdilution method. It counts as functional.
For test [8], the system named is Streptococcus pyogenes. Kind of test: Antibacterial activity against inducible resistance to macrolide, licosamide and streptogramin Streptococcus pyogenes 11 by broth microdilution method. It counts as functional.

Consider `CC[C@H]1OC(=O)[C@H](C)[C@@H](O[C@H]2C[C@@](C)(OC)[C@@H](OCCCOCCCc3ccc4c(c3)c(=O)c(C(=O)O)cn4N(C)C)[C@H](C)O2)[C@H](C)[C@@H](O[C@@H]2O[C@H](C)C[C@H](N(C)C)[C@H]2O)[C@](C)(O)C[C@@H](C)CN(C)[C@H](C)[C@@H](O)[C@]1(C)O`, for which the MIC was ≤ 0.125 µg/mL with Streptococcus pneumoniae [1] (read-out: MIC); ≤ 0.125 µg/mL in the test on Staphylococcus aureus [2]; 2 µg/mL (≈ 1.85 µM) against Haemophilus influenzae; 0.25 µg/mL (≈ 0.232 µM) in the test with Streptococcus pneumoniae [3]; ≤ 0.125 µg/mL with Streptococcus pneumoniae [4]; ≤ 0.125 µg/mL against Streptococcus pyogenes [5]. Moreover, the MIC in the test on Staphylococcus aureus [6], against Streptococcus pyogenes [7] and in the test on Streptococcus pyogenes [8] (read-out: MIC) was ≤ 0.125 µg/mL in each case. In addition, the IC50 was > 50 µM in the test with HepG2 and 48 µM in the test on THP-1.

Consider `CC[C@H]1OC(=O)[C@H](C)[C@@H](O[C@H]2C[C@@](C)(OC)[C@@H](OCCCOCCCCCc3ccc4c(c3)c(=O)c(C(=O)O)cn4N(C)C)[C@H](C)O2)[C@H](C)[C@@H](O[C@@H]2O[C@H](C)C[C@H](N(C)C)[C@H]2O)[C@](C)(O)C[C@@H](C)CN(C)[C@H](C)[C@@H](O)[C@]1(C)O`, for which the MIC in the test with Streptococcus pneumoniae [1] (read-out: MIC) was ≤ 0.125 µg/mL; in the test on Staphylococcus aureus [2], ≤ 0.125 µg/mL; against Haemophilus influenzae it was 1 µg/mL (≈ 0.903 µM); in the test on Streptococcus pneumoniae [3], 0.5 µg/mL (≈ 0.451 µM); in the test on Streptococcus pneumoniae [4], ≤ 0.125 µg/mL; in the test on Streptococcus pyogenes [5], 0.25 µg/mL (≈ 0.226 µM). For the same compound, the MIC with Staphylococcus aureus [6], in the test with Streptococcus pyogenes [7] and in the test with Streptococcus pyogenes [8] (read-out: MIC) was ≤ 0.125 µg/mL each time. The IC50 with HepG2 is 13 µM; in the test on THP-1 it was 8 µM.

Regarding `CC[C@H]1OC(=O)[C@H](C)[C@@H](O[C@H]2C[C@@](C)(OC)[C@@H](OCCCOCCCc3cc4c5c(c3)c(=O)c(C(=O)O)cn5C(C)(C)CO4)[C@H](C)O2)[C@H](C)[C@@H](O[C@@H]2O[C@H](C)C[C@H](N(C)C)[C@H]2O)[C@](C)(O)C[C@@H](C)CN(C)[C@H](C)[C@@H](O)[C@]1(C)O`, the MIC is < 0.02 µg/mL against Streptococcus pneumoniae [1]; 0.13 µg/mL (≈ 0.117 µM) with Staphylococcus aureus [2]; 2 µg/mL (≈ 1.81 µM) in the test on Haemophilus influenzae; ≤ 0.125 µg/mL against Streptococcus pneumoniae [3]; ≤ 0.125 µg/mL against Streptococcus pneumoniae [4]; 1 µg/mL (≈ 0.904 µM) with Streptococcus pyogenes [5]. The MIC was 0.06 µg/mL (≈ 0.0542 µM) in the test with Staphylococcus aureus [6] and < 0.02 µg/mL in the test with Streptococcus pyogenes [8]. The figures for the IC50 in the test on HepG2 and in the test with THP-1 were > 50 µM and 40 µM, respectively.

Turning to `CC[C@H]1OC(=O)[C@H](C)[C@@H](O[C@H]2CC(C)(OC)[C@@H](OCCCOCCCc3ccc4c(c3)c(=O)c(C(=O)O)cn4C(C)(C)C)[C@H](C)O2)[C@H](C)[C@@H](O[C@@H]2O[C@H](C)C[C@H](N(C)C)[C@H]2O)[C@](C)(O)C[C@@H](C)CN(C)[C@H](C)[C@@H](O)[C@]1(C)O` (some centres undefined), the MIC with Streptococcus pneumoniae [1] (read-out: MIC) was ≤ 0.125 µg/mL; against Staphylococcus aureus [2], ≤ 0.125 µg/mL; against Haemophilus influenzae, 2 µg/mL (≈ 1.83 µM); with Streptococcus pneumoniae [3], ≤ 0.125 µg/mL; in the test with Streptococcus pneumoniae [4] it was ≤ 0.125 µg/mL; with Streptococcus pyogenes [5] it was ≤ 0.125 µg/mL. The MIC in the test with Staphylococcus aureus [6], in the test with Streptococcus pyogenes [7] and with Streptococcus pyogenes [8] (read-out: MIC) was ≤ 0.125 µg/mL throughout. The half-inhibitory concentration (IC50) was > 50 µM with HepG2 and 40 µM in the test with THP-1.

Consider `CC[C@H]1OC(=O)[C@H](C)[C@@H](O[C@H]2C[C@@](C)(OC)[C@@H](OCCCOCCCCCc3ccc4c(c3)c(=O)c(C(=O)O)cn4CC)[C@H](C)O2)[C@H](C)[C@@H](O[C@@H]2O[C@H](C)C[C@H](N(C)C)[C@H]2O)[C@](C)(O)C[C@@H](C)CN(C)[C@H](C)[C@@H](O)[C@]1(C)O`, for which the MIC was ≤ 0.125 µg/mL in the test with Streptococcus pneumoniae [1] (read-out: MIC); ≤ 0.125 µg/mL with Staphylococcus aureus [2]; 2 µg/mL (≈ 1.83 µM) with Haemophilus influenzae; 0.5 µg/mL (≈ 0.458 µM) in the test with Streptococcus pneumoniae [3]; ≤ 0.125 µg/mL against Streptococcus pneumoniae [4]; 0.25 µg/mL (≈ 0.229 µM) with Streptococcus pyogenes [5]. For the same compound, the MIC in the test on Staphylococcus aureus [6], in the test with Streptococcus pyogenes [7] and in the test on Streptococcus pyogenes [8] (read-out: MIC) was ≤ 0.125 µg/mL in each case. For the same compound, the 50% inhibitory concentration (IC50) with HepG2 amounted to 20 µM; in the test with THP-1, 9 µM.

In the case of `CC[C@H]1OC(=O)[C@H](C)[C@@H](O[C@H]2C[C@@](C)(OC)[C@@H](OCCCOCCCc3ccc4c(c3)c(=O)c(C(=O)O)cn4C(C)C)[C@H](C)O2)[C@H](C)[C@@H](O[C@@H]2O[C@H](C)C[C@H](N(C)C)[C@H]2O)[C@](C)(O)C[C@@H](C)CN(C)[C@H](C)[C@@H](O)[C@]1(C)O`, the MIC is ≤ 0.125 µg/mL in the test with Streptococcus pneumoniae [1] (read-out: MIC); ≤ 0.125 µg/mL in the test with Staphylococcus aureus [2]; 4 µg/mL (≈ 3.71 µM) in the test on Haemophilus influenzae; < 0.125 µg/mL against Streptococcus pneumoniae [3]; ≤ 0.125 µg/mL in the test on Streptococcus pneumoniae [4]; ≤ 0.125 µg/mL with Streptococcus pyogenes [5]. Moreover, the MIC against Staphylococcus aureus [6], in the test on Streptococcus pyogenes [7] and with Streptococcus pyogenes [8] (read-out: MIC) was ≤ 0.125 µg/mL throughout. For the same compound, the IC50 is > 50 µM with HepG2 and 46 µM in the test on THP-1.

With `CC[C@H]1OC(=O)[C@H](C)[C@@H](O[C@H]2C[C@@](C)(OC)[C@@H](O)[C@H](C)O2)[C@H](C)[C@@H](O[C@@H]2O[C@H](C)C[C@H](N(C)C)[C@H]2O)[C@](C)(O)C[C@@H](C)CN(C)[C@H](C)[C@@H](O)[C@]1(C)O` [AZITHROMYCIN], the MIC in the test on Streptococcus pneumoniae [1] (read-out: MIC) was 8 µg/mL (≈ 10.7 µM); against Staphylococcus aureus [2], > 64 µg/mL; in the test with Haemophilus influenzae, 1 µg/mL (≈ 1.34 µM); in the test on Streptococcus pneumoniae [3] it was > 64 µg/mL; with Streptococcus pneumoniae [4], > 64 µg/mL; in the test with Streptococcus pyogenes [5], > 64 µg/mL. In addition, the results for the MIC against Staphylococcus aureus [6], in the test with Streptococcus pyogenes [7] and in the test with Streptococcus pyogenes [8] (read-out: MIC) were > 64 µg/mL, 8 µg/mL (≈ 10.7 µM) and 16 µg/mL (≈ 21.4 µM), respectively.

The IC50 is the concentration needed to halve the response being measured. Read a low IC50 as greater potency.
